Legend:
purified nitrilase = molecular target: T1, purified nitrilase (Comamonas testosteroni, UniProt Q59329); assay: Relative activity of the purified nitrilase on various nitriles; type: biochemical, Comamonas testosteroni sp.; conditions: acetate buffer 10 mM, pH 4; substrate 10 mM; 25° C.
T1 construct: about 280 kDa oligomer of about 38 kDa subunits
Experimental: The activities of the purified nitrilase were measured on adiponitrile, 5-cyanovaleramide, 5-cyanovaleric acid, benzonitrile, propionitrile and acrylonitrile.
COMMON CONDITIONS: acetate buffer=10 mM, pH 4; substrate=10 mM; volume=3 ml; T=25° C.; reaction time=1 or 3 h; proteins: from 5 to 30 μg/ml.

E. coli TG1 pXL2035,2158 = assay: Nitrilase activity of recombinant strain E. coli TG1 pXL2035,2158; type: cell-based; conditions: DW 0.2 g/l; 1 ml; pH 7.0; substrate 50 mM
Experimental: (§1) The activities of these strains, induced or non-induced, are measured on adiponitrile and 5-cyanovalerate at different pH values and are compared with the negative control strains: E. coli TG1, E. coli TG1 (pXL2035) and Pseudomonas putida G2081.
(§2) The cultures are carried out under the conditions described in Table 4. During the exponential growth phase, one of the two cultures of the recombinant strain is induced with 1 mM IPTG; after 2 h at 37° C., this culture is treated.
(§3) The conditions of the specific activity measurements and the results are collated in Table 5.
(§4) COMMON CONDITIONS: [substrate]=50 mM; T=25° C.; buffer 50 mM; kinetics over 90 min for 1 to 3 and over 120 min for 4 to 8.
(§5) ABBREVIATIONS: W=whole cells; S=sonicated cells; Ua=μmols of cyanovalerate produced/h; Ub=μmols of adipate produced/h; AdN=adiponitrile; CVA=5-cyanovalerate. DW=dry weight.

E. coli TG1 pXL2087 = assay: Nitrilase activity of recombinant strain E. coli TG1 pXL2087; type: cell-based; conditions: substrate 50 mM
Experimental: as §1, §2, §3, §4, §5

E. coli TG1 = assay: Nitrilase activity of control strain E. coli TG1; type: cell-based; conditions: no IPTG, whole cells, DW 15.5 g/l, 1 ml, substrate 50 mM, 25° C.
Experimental: as §1, §2, §3, §4, §5

P. putida G2081 pXL2169 = assay: Nitrilase activity of recombinant strain P. putida G2081 pXL2169; type: cell-based, Pseudomonas putida; conditions: no IPTG; whole cells; DW 0.25 g/l; 1 ml; pH 7.0; substrate 50 mM
Experimental: as §1, §2, §3, §4, §5

E. coli TG1 pXL2158 = assay: Nitrilase activity of recombinant strain E. coli TG1 pXL2158; type: cell-based; conditions: DW 1.25 g/l; 1 ml; pH 7.0; substrate 50 mM
Experimental: as §1, §2, §3, §4, §5

E. coli PXL2158 + 2035 [1] = assay: Hydrolysis of methiononitrile with E. coli PXL2158 + 2035 in suspension; type: cell-based; conditions: for Initial specific activity: whole cells, DW 1.4 g/l, pH 7, 28° C.
Experimental: (§6) The recombinant strains used in this example are those from E. coli TG1, integrating the plasmids PXL2158 and PXL2035 described above and containing the nitrilase gene of Comamonas testosteroni.
(§7) Tests 9 to 13 show the nitrilase activity at 28° C., of these recombinant strains with respect to the methiononitrile, according to various operating conditions. The strain culture is performed as explained in example 6.1.The following Table 7 summarizes the conditions and the results of tests 9 to 13.

E. coli PXL2158 = assay: Hydrolysis of methiononitrile with E. coli PXL2158 in suspension; type: cell-based; conditions: test 9; whole cells; MetCN 100 mM; DW 17.2 g/l; pH 7; 28° C.
Experimental: as §6, §7

E. coli PXL2158 + 2035 [2] = assay: Hydrolysis of methiononitrile with free and resin-fixed cells of E. coli PXL2158 + 2035; type: cell-based; conditions: test 15; free cells; dry cells 1.3 g/l; MetCN 50 mM; pH7; 28° C.
Experimental: The E. coli PXL 2158+2035 free cells are fixed on resin according to the technique described in U.S. Pat. No. 4,732,851, so as to form a biocatalyst.
CONDITIONS: volume=5 ml; potassium phosphate buffer=100 mM pH7, [MetCN]=50 mM; T 28° C.; kinetics over 3 h; DB=dry biocatalyst; DC=dry cells.
Two methiononitrile batches were tested: purified methiononitrile in the form of a sulfate and free methiononitrile.
CONDITIONS: volume=5 ml; potassium phosphate buffer=100 mM pH7; T 28° C.; kinetics over 3 h; *=percent with respect to the formed acid; DB=dry biocatalyst; DC=dry cells.

T1 sequence (Q59329 entry or part of it): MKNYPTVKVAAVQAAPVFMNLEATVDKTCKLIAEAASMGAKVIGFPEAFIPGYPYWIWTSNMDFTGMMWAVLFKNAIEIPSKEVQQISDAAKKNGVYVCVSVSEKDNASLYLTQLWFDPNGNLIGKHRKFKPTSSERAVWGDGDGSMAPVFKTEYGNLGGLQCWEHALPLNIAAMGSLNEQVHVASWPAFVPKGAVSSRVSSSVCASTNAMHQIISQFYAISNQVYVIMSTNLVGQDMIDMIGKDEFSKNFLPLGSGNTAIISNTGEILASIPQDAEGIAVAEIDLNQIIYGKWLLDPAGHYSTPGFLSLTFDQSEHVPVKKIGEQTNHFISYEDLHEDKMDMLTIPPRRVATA

N#CCCCCC(N)=O [5-Cyanovaleramide, 5-cyanovaleramide]
RELATIVE ACTIVITY (purified nitrilase): 28%

N#CCCCCC(=O)O [5-Cyanovalerate, 5-cyanovalerate]
Activity Ub (E. coli TG1 pXL2035,2158): 70 μmols of adipate produced/h
Activity Ub (E. coli TG1 pXL2087; +IPTG, sonicated cells, DW 1.4 g/l, 1 ml, pH 5.2): 25 μmols of adipate produced/h
Activity Ub (E. coli TG1 pXL2087; +IPTG, sonicated cells, DW 1.4 g/l, 2 ml, pH 7.0): 8 μmols of adipate produced/h
Activity Ub (E. coli TG1 pXL2087; +IPTG, whole cells, DW 1.4 g/l, 1 ml, pH 4.0): 28 μmols of adipate produced/h
Activity Ub (E. coli TG1 pXL2087; +IPTG, whole cells, DW 1.4 g/l, 1 ml, pH 5.2): 27 μmols of adipate produced/h
Activity Ub (E. coli TG1 pXL2087; +IPTG, whole cells, DW 1.4 g/l, 2 ml, pH 7.0): 8 μmols of adipate produced/h
Activity Ub (E. coli TG1 pXL2087; no IPTG, sonicated cells, DW 1.0 g/l, 1 ml, pH 5.2): 13 μmols of adipate produced/h
Activity Ub (E. coli TG1 pXL2087; no IPTG, sonicated cells, DW 1.0 g/l, 1 ml, pH 7.0): 3.2 μmols of adipate produced/h
Activity Ub (E. coli TG1 pXL2087; no IPTG, whole cells, DW 1.2 g/l, 2 ml, pH 4.0): 10 μmols of adipate produced/h
Activity Ub (E. coli TG1 pXL2087; no IPTG, whole cells, DW 1.2 g/l, 2 ml, pH 5.2): 14 μmols of adipate produced/h
Activity Ub (E. coli TG1 pXL2087; no IPTG, whole cells, DW 1.2 g/l, 2 ml, pH 7.0): 3.4 μmols of adipate produced/h
Activity Ub (E. coli TG1; pH 5.2): 0 μmols of adipate produced/h
Activity Ub (E. coli TG1; pH 7.0): 0 μmols of adipate produced/h
Activity Ua (P. putida G2081 pXL2169): 130 μmols of cyanovalerate produce
Activity Ub (E. coli TG1 pXL2158): 8.3 μmols of adipate produced/h

C=CC#N [Acrylonitrile, acrylonitrile]
RELATIVE ACTIVITY (purified nitrilase): 23%

N#Cc1ccccc1 [Benzonitrile, benzonitrile]
RELATIVE ACTIVITY (purified nitrilase): 4%

CSCCC(N)C#N (stereo not drawn) [MetCN, methiononitrile]
nitrilase activity (E. coli PXL2158 + 2035 [1]; comment on Table 7): about 80 μmol of MEtCN/hxmg of DW
Initial specific activity (E. coli PXL2158 + 2035 [1]; test 10, MetCN 50 mM): 77 μmol/h x mg of DW
Initial specific activity (E. coli PXL2158 + 2035 [1]; test 11, MetCN 50 mM): 62 μmol/h x mg of DW
Initial specific activity (E. coli PXL2158 + 2035 [1]; test 12, MetCN 100 mM): 73 μmol/h x mg of DW
Initial specific activity (E. coli PXL2158 + 2035 [1]; test 13, MetCN 200 mM): 61 μmol/h x mg of DW
activity relative to E. coli PXL2158 alone (E. coli PXL2158 + 2035 [1]; tests 9 and 10): ~10 times
Initial specific activity (E. coli PXL2158): 8 μmol/h x mg of DW
Specific Initial Activity (E. coli PXL2158 + 2035 [2]): 63 μmol/hx mg DC

CCC#N [Propionitrile, propionitrile]
RELATIVE ACTIVITY (purified nitrilase): 6%
